Data on 25 molecules can be found in patent US7514443B2, “Substituted pyrazolo[1,5-a]pyrimidines as inhibitors of metabotropic glutamate receptors” (Hoffmann-La Roche Inc., priority 2003, dated 2009).

As a reminder, the melting point is the temperature, or range, at which the solid turns liquid.

`FC(F)(F)c1cc(-c2ccc(Br)cc2)nc2c(-c3ccncc3)cnn12` [Example 4.55, 5-(4-Bromo-phenyl)-3-pyridin-4-yl-7-trifluoromethyl-pyrazolo[1,5-a]pyrimidine]: the melting point was found to be 289 °C. The result for `N#Cc1ncn2c(C(F)(F)F)cc(-c3ccccc3Cl)nc12` [Example 5.6, 2-(2-Chloro-phenyl)-4-trifluoromethyl-imidazo[1,5-a]pyrimidine-8-carbonitrile] reads 180 °C; that for `Cc1cc(-c2cnn3c(C(F)(F)F)cc(-c4ccc(Cl)c(C)c4)nc23)cc(C)n1` [Example 4.20, 5-(4-Chloro-3-methyl-phenyl)-3-(2,6-dimethyl-pyridin-4-yl)-7-trifluoromethyl-pyrazolo[1,5-a]pyrimidine], 254 °C; that for `CCOc1cc(-c2cc(C(F)(F)F)n3ncc(-c4ccncc4)c3n2)ccc1C(F)(F)F` [Example 4.47, 5-(3-Ethoxy-4-trifluoromethyl-phenyl)-3-pyridin-4-yl-7-trifluoromethyl-pyrazolo[1,5-a]pyrimidine], 251 °C. Regarding `N#Cc1ncn2c(C(F)(F)F)cc(-c3cccc(C(F)(F)F)c3)nc12` [Example 5.11, 2-(3-Trifluoromethyl-phenyl)-4-trifluoromethyl-imidazo[1,5-a]pyrimidine-8-carbonitrile], the melting point turned out to be 202 °C. Turning to `Cc1cc(-c2cnn3c(C(F)(F)F)cc(-c4ccc(OCC(F)(F)F)c(C(F)(F)F)c4)nc23)ccn1` [Example 4.46, 5-[4-(2,2,2-Trifluoroethoxy)-3-trifluoromethyl-phenyl]-3-(2-methyl-pyridin-4-yl)-7-trifluoromethyl-pyrazolo[1,5-a]pyrimidine], the melting point was 210 °C. The value for `CCOc1cc(-c2cc(C(F)(F)F)n3cnc(-c4ccncc4)c3n2)ccc1C(F)(F)F` [Example 8.30, 2-(3-Ethoxy-4-trifluoromethyl-phenyl)-8-pyridin-4-yl-4-trifluoromethyl-imidazo[1,5-a]pyrimidine] was 212 °C; that for `Cc1cc(-c2cnn3c(C(F)(F)F)cc(-c4ccc(Cl)c(Cl)c4)nc23)ccn1` [Example 4.32, 5-(3,4-Dichloro-phenyl)-3-(2-methyl-pyridin-4-yl)-7-trifluoromethyl-pyrazolo[1,5-a]pyrimidine] was 275 °C. The result for `Cc1cc(-c2ncn3c(C(F)(F)F)cc(-c4ccc(C(F)(F)F)c(C)c4)nc23)ccn1` [Example 8.29, 2-(3-Methyl-4-trifluoromethyl-phenyl)-8-(2-methyl-pyridin-4-yl)-4-trifluoromethyl-imidazo[1,5-a]pyrimidine] reads 243 °C.

`Fc1ccc(-c2cc(C(F)(F)F)n3cnc(-c4cccnc4)c3n2)cc1Cl` [Example 8.3, 2-(3-Chloro-4-fluoro-phenyl)-8-pyridin-3-yl-4-trifluoromethyl-imidazo[1,5-a]pyrimidine] registered a melting point of 188 °C.

Molecule `N#Cc1ncn2c(C(F)(F)F)cc(-c3ccc(C(F)(F)F)cc3)nc12` [Example 5.10, 2-(4-Trifluoromethyl-phenyl)-4-trifluoromethyl-imidazo[1,5-a]pyrimidine-8-carbonitrile] came in with a melting point of 236 °C. In turn, `Cc1ccc(-c2cc(C(F)(F)F)n3ncc(-c4ccncc4)c3n2)cc1C(F)(F)F` [Example 4.27, 5-(4-Methyl-3-trifluoromethyl-phenyl)-3-pyridin-4-yl-7-trifluoromethyl-pyrazolo[1,5-a]pyrimidine] showed a melting point of 218 °C. In turn, `CCOc1cc(-c2cc(C(F)(F)F)n3ncc(-c4ccnc(C)c4)c3n2)ccc1C(F)(F)F` [Example 4.49, 5-(3-Ethoxy-4-trifluoromethyl-phenyl)-3-(2-methyl-pyridin-4-yl)-7-trifluoromethyl-pyrazolo[1,5-a]pyrimidine] had a melting point of 226 °C. The result for `Cc1cc(-c2cnn3c(C(F)(F)F)cc(-c4ccc(Br)cc4)nc23)cc(C)n1` [Example 4.57, 5-(4-Bromo-phenyl)-3-(2,6-dimethyl-pyridin-4-yl)-7-trifluoromethyl-pyrazolo[1,5-a]pyrimidine] reads 258 °C. The value for `FC(F)(F)COc1cc(-c2cc(C(F)(F)F)n3ncc(-c4ccncc4)c3n2)ccc1C(F)(F)F` [Example 4.50, 3-Pyridin-4-yl-5-[3-(2,2,2-trifluoro-ethoxy)-4-trifluoromethyl-phenyl]-7-trifluoromethyl-pyrazolo[1,5-a]pyrimidine] was 251 °C; that for `FC(F)c1cc(-c2ccc(C(F)(F)F)cc2)nc2c(-c3ccncc3)cnn12` [Example 9.1, 7-Difluoromethyl-3-pyridin-4-yl-5-(4-trifluoromethyl-phenyl)-pyrazolo[1,5-a]pyrimidine] was 222 °C; that for `Cc1cc(-c2cnn3c(C(F)(F)F)cc(-c4ccc(Cl)cc4)nc23)cc(C)n1` [Example 4.19, 5-(4-Chloro-phenyl)-3-(2,6-dimethyl-pyridin-4-yl)-7-trifluoromethyl-pyrazolo[1,5-a]pyrimidine] was 256 °C. As to `Cc1cc(-c2ncn3c(C(F)(F)F)cc(-c4ccc(Br)cc4)nc23)ccn1` [Example 8.36, 2-(4-Bromo-phenyl)-8-(2-methyl-pyridin-4-yl)-4-trifluoromethyl-imidazo[1,5-a]pyrimidine], the melting point is 249 °C.

In turn, `N#Cc1cnn2c(C(F)(F)F)cc(-c3ccccn3)nc12` [Example 1.20, 5-Pyridin-2-yl-7-trifluoromethyl-pyrazolo[1,5-a]pyrimidine-3-carbonitrile] yielded a melting point of 208 °C. The result for `Cc1ccc(-c2cc(C(F)(F)F)n3ncc(-c4cccnc4)c3n2)cc1C(F)(F)F` [Example 4.26, 5-(4-Methyl-3-trifluoromethyl-phenyl)-3-pyridin-3-yl-7-trifluoromethyl-pyrazolo[1,5-a]pyrimidine] reads 182 °C. `N#Cc1ncn2c(C(F)(F)F)cc(-c3ccc(Cl)cc3Cl)nc12` [Example 5.7, 2-(2,4-Dichloro-phenyl)-4-trifluoromethyl-imidazo[1,5-a]pyrimidine-8-carbonitrile] displayed a melting point of 139 °C.

Regarding `N#Cc1cnn2c(C(F)(F)F)cc(-c3cccc(Cl)c3)nc12` [Example 1.1, 5-(3-Chloro-phenyl)-7-trifluoromethyl-pyrazolo[1,5-a]pyrimidine-3-carbonitrile], the melting point turned out to be 204 °C. The value for `Cc1cc(-c2cnn3c(C(F)(F)F)cc(-c4ccc(Br)cc4)nc23)ccn1` [Example 4.56, 5-(4-Bromo-phenyl)-3-(2-methyl-pyridin-4-yl)-7-trifluoromethyl-pyrazolo[1,5-a]pyrimidine] was 226 °C; that for `Cc1cc(-c2cc(C(F)(F)F)n3ncc(-c4ccnc(CO)c4)c3n2)ccc1Cl` [Example 6.3, {4-[5-(4-Chloro-3-methyl-phenyl)-7-trifluoromethyl-pyrazolo[1,5-a]pyrimidin-3-yl]-pyridin-2-yl}-methanol] was 220 °C. The result for `Cc1ccc(-c2cc(C(F)(F)F)n3ncc(C#N)c3n2)cc1` [Example 1.2, 5-(4-Methyl-phenyl)-7-trifluoromethyl-pyrazolo[1,5-a]pyrimidine-3-carbonitrile] reads 121 °C.
